In this assay the target is T1, Y2 receptors (Homo sapiens, UniProt P49146).
T1 construct: endogenous in cells; host or cells: KAN-Ts cells (membranes)
T1 sequence (P49146 1-381): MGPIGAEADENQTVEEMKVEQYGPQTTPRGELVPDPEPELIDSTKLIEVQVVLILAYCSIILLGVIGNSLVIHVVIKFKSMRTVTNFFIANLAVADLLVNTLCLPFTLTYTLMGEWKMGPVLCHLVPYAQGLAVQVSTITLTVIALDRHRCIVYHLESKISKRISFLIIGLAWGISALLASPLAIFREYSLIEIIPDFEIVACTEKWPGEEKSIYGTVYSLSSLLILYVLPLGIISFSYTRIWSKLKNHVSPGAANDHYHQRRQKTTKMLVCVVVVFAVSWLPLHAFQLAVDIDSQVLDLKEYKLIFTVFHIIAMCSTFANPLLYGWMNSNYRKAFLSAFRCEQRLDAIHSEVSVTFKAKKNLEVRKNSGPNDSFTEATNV
Nature of the assay: Radioligand binding assay ([125I]PYY, KAN-Ts cell membranes). As to conditions: Table 1, [125I]PYY 80 pM, average of results, read-out: IC50. The procedure, abridged: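 Membranes from KAN-Ts cells endogenously expressing Y2 incubated 1 h at rt with 80 pM [^125I]PYY ± test compound in HEPES buffer with NaCl, Ca^2+ and Mg^2+. Bound radioactivity collected by filtration; specific binding defined with […]. IC50 from sigmoidal fit, averaged over 3-8 duplicate experiments.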
A word on the IC50: it is the concentration at which inhibition is half-maximal. Take `CCNC(=O)C(c1ccccc1)N1CCN(c2ccc(NC(=O)c3cccnc3Br)cc2F)CC1` (centres unmarked) [Example 100, 2-Bromo-N-{4-[4-(ethylcarbamoyl-phenyl-methyl)-piperazin-1-yl]-3-fluoro-phenyl}-nicotinamide]: the IC50 is 0.89 µM.
In the case of `COC(=O)C(c1ccccc1)N1CCN(c2ccc(NC(=O)c3ccco3)cc2)CC1` (centres unmarked) [Example 101, (4-{4-[(Furan-2-carbonyl)-amino]-phenyl}-piperazin-1-yl)-phenyl-acetic acid methyl ester], the IC50 was 20 µM.
For the compound `COC(=O)C(c1ccccc1)N1CCN(c2ccc(NC(=O)c3ccoc3)cc2)CC1` (centres unmarked) [Example 102, (4-{4-[(Furan-3-carbonyl)-amino]-phenyl}-piperazin-1-yl)-phenyl-acetic acid methyl ester], the IC50 turned out to be 20 µM.
As to `COC(=O)C(c1ccccc1)N1CCN(c2ccc(NC(=O)c3ccsc3)cc2)CC1` (centres unmarked) [Example 103, Phenyl-(4-{4-[(thiophene-3-carbonyl)-amino]-phenyl}-piperazin-1-yl)-acetic acid methyl ester], the IC50 stood at 2.5 µM.
With `COC(=O)C(c1ccccc1)N1CCN(c2ccc(NC(=O)c3ccc[nH]3)cc2)CC1` (centres unmarked) [Example 104, Phenyl-(4-{4-[(1H-pyrrole-2-carbonyl)-amino]-phenyl}-piperazin-1-yl)-acetic acid methyl ester], the IC50 is 7 µM.
With `COC(=O)C(c1ccccc1)N1CCN(c2ccc(NC(=O)c3ccccn3)cc2)CC1` (centres unmarked) [Example 106, Phenyl-(4-{4-[(pyridine-2-carbonyl)-amino]-phenyl}-piperazin-1-yl)-acetic acid methyl ester] the figure was 12 µM; with `COC(=O)C(c1ccccc1)N1CCN(c2ccc(NC(=O)c3cncnc3)cc2)CC1` (centres unmarked) [Example 108, Phenyl-(4-{4-[(pyrimidine-5-carbonyl)-amino]-phenyl}-piperazin-1-yl)-acetic acid methyl ester], 26 µM.
Take `COC(=O)C(c1ccccc1)N1CCN(c2ccc(NC(=O)CC(C)C)cc2)CC1` (centres unmarked) [Example 109, {4-[4-(3-Methyl-butyrylamino)-phenyl]-piperazin-1-yl}-phenyl-acetic acid methyl ester]: the IC50 turned out to be 6.1 µM.
For `COC(=O)C(c1ccccc1)N1CCN(c2ccc(NC(=O)c3ccccc3Br)cc2)CC1` (centres unmarked) [Example 110, {4-[4-(2-Bromo-benzoylamino)-phenyl]-piperazin-1-yl}-phenyl-acetic acid methyl ester], the half-inhibitory concentration (IC50) turned out to be 2.4 µM.
Regarding `CCN(CC)C(=O)C(c1ccccc1)N1CCN(c2ccc(NC(=O)c3ccccc3Br)cc2F)CC1` (centres unmarked) [Example 111, 2-Bromo-N-{4-[4-(diethylcarbamoyl-phenyl-methyl)-piperazin-1-yl]-3-fluoro-phenyl}-benzamide], the IC50 is 0.34 µM.
Take `CCC(CC)C(=O)N(C)c1ccc(N2CCN(C(C(=O)N(CC)CC)c3ccccc3)CC2)c(F)c1` (centres unmarked) [Example 112, N-{4-[4-(Diethylcarbamoyl-phenyl-methyl)-piperazin-1-yl]-3-fluoro-phenyl}-2-ethyl-N-methyl-butyramide]: the IC50 worked out at 0.45 µM.
With `CCNC(=O)C(c1ccccc1)N1CCN(c2ccc(C(=O)NC(CC)CC)cc2F)CC1` (centres unmarked) [Example 113, 4-[4-(Ethylcarbamoyl-phenyl-methyl)-piperazin-1-yl]-N-(1-ethyl-propyl)-3-fluoro-benzamide] the figure was 5.75 µM; with `COC(=O)C(c1ccccc1)N1CCN(c2ccc(C(=O)Nc3ccccc3)cc2)CC1` (centres unmarked) [Example 114, Phenyl-[4-(4-phenylcarbamoyl-phenyl)-piperazin-1-yl]-acetic acid methyl ester], 10 µM.
Consider `CCC(CC)NC(=O)c1ccc(N2CCN(C(C(=O)OC)c3ccccc3)CC2)c(F)c1` (centres unmarked) [Example 115, {4-[4-(1-Ethyl-propylcarbamoyl)-2-fluoro-phenyl]-piperazin-1-yl}-phenyl-acetic acid methyl ester], for which the IC50 was found to be 3.2 µM.
Consider `CCC(CC)NC(=O)c1ccc(N2CCN(C(C(=O)OC)c3ccccc3)CC2)cc1` (centres unmarked) [Example 116, {4-[4-(1-Ethyl-propylcarbamoyl)-phenyl]-piperazin-1-yl}-phenyl-acetic acid methyl ester], for which the IC50 turned out to be 10 µM.
As for `CCNC(=O)C(c1ccccc1)C1CCN(c2ccc(C(=O)NC(CC)CC)cc2F)CC1` (centres unmarked) [Example 117, 4-[4-(Ethylcarbamoyl-phenyl-methyl)-piperidin-1-yl]-N-(1-ethyl-propyl)-3-fluoro-benzamide], the IC50 was 10 µM.
In the case of `CC(=O)N(c1ccccc1)c1ccc(N2CCN(C(C(=O)Nc3ccc4c(c3)CCC4)c3ccccc3)CC2)cc1` (centres unmarked) [Example 118, 2-{4-[4-(Acetyl-phenyl-amino)-phenyl]-piperazin-1-yl}-N-indan-5-yl-2-phenyl-acetamide], the IC50 worked out at 3.4 µM.
`CCC(C)C(=O)Nc1ccc(N2CCC(C(C(=O)OC)c3ccccc3)CC2)cc1` (centres unmarked) [Example 120, {1-[4-(2-Methyl-butyrylamino)-phenyl]-piperidin-4-yl}-phenyl-acetic acid methyl ester]: the IC50 stood at 2.4 µM.
Consider `CCN(CC)C(=O)C(c1ccccc1)N1CCN(c2ccc(NC(=O)[C@H]3CCOC3)cc2C#N)CC1` (stereo partly drawn) [Example 122, (S)-Tetrahydro-furan-3-carboxylic acid {3-cyano-4-[4-(diethylcarbamoyl-phenyl-methyl)-piperazin-1-yl]-phenyl}-amide], for which the IC50 is 0.008 µM.
With `CCN(CC)C(=O)C(c1ccccc1)N1CCN(c2ccc(NC(=O)[C@@H]3CCOC3)cc2C#N)CC1` (stereo partly drawn) [Example 123, (R)-Tetrahydro-furan-3-carboxylic acid {3-cyano-4-[4-(diethylcarbamoyl-phenyl-methyl)-piperazin-1-yl]-phenyl}-amide], the IC50 was determined as 0.017 µM.
Take `CCC(CC)C(=O)Nc1ccc(N2CCN(C(C(=O)N(CC)CC)c3cc(Br)ccc3F)CC2)c(F)c1` (centres unmarked) [Example 124, N-(4-{4-[(5-Bromo-2-fluoro-phenyl)-diethylcarbamoyl-methyl]-piperazin-1-yl}-3-fluoro-phenyl)-2-ethyl-butyramide]: the IC50 amounted to 0.015 µM.
For `CCN(CC)C(=O)C(c1ccccc1)N1CCN(c2ccc(NC(=O)C3(c4ccccc4)CCCC3)cc2F)CC1` (centres unmarked) [Example 125, 1-Phenyl-cyclopentanecarboxylic acid {4-[4-(diethylcarbamoyl-phenyl-methyl)-piperazin-1-yl]-3-fluoro-phenyl}-amide], the IC50 came to 0.02 µM.
Regarding `CCN(CC)C(=O)C(c1ccccc1)C1CCN(c2ccc(NC(=O)[C@H]3CCOC3)cc2F)CC1` (stereo partly drawn) [Example 126, (S)-Tetrahydro-furan-3-carboxylic acid {4-[4-(diethylcarbamoyl-phenyl-methyl)-piperidin-1-yl]-3-fluoro-phenyl}-amide], the IC50 was determined as 0.025 µM.
`CCOC(=O)C(c1ccccc1)N1CCN(c2ccc(NC(=O)C(CC)CC)cc2F)CC1` (centres unmarked) [Example 127, {4-[4-(2-Ethyl-butyrylamino)-2-fluoro-phenyl]-piperazin-1-yl}-phenyl-acetic acid ethyl ester]: the concentration for half-maximal inhibition (IC50) turned out to be 0.02 µM.
With `CCN(CC)C(=O)C(c1ccccc1)N1CCN(c2ccc(NC(=O)c3ccnn3CC)cc2F)CC1` (centres unmarked) [Example 128, 2-Ethyl-2H-pyrazole-3-carboxylic acid {4-[4-(diethylcarbamoyl-phenyl-methyl)-piperazin-1-yl]-3-fluoro-phenyl}-amide] the figure was 0.035 µM; with `CCC(CC)C(=O)Nc1ccc(N2CCN(C(C(=O)N(CC)CC)c3cccc(OC)c3)CC2)c(F)c1` (centres unmarked) [Example 129, N-(4-{4-[Diethylcarbamoyl-(3-methoxy-phenyl)-methyl]-piperazin-1-yl}-3-fluoro-phenyl)-2-ethyl-butyramide], 0.04 µM.
Take `CCNC(=O)C(c1ccccc1)C1CCN(c2ccc(NC(=O)C3CCCC3)cc2C#N)CC1` (centres unmarked) [Example 130, Cyclopentanecarboxylic acid {3-cyano-4-[4-(ethylcarbamoyl-phenyl-methyl)-piperidin-1-yl]-phenyl}-amide]: the IC50 was 0.04 µM.
On to `CCN(CC)C(=O)C(c1ccccc1)C1CCN(c2ccc(NC(=O)c3cccnc3C)cc2F)CC1` (centres unmarked) [Example 131, N-{4-[4-(Diethylcarbamoyl-phenyl-methyl)-piperidin-1-yl]-3-fluoro-phenyl}-2-methyl-nicotinamide], for which the IC50 amounted to 0.05 µM.
With `CCN(CC)C(=O)C(c1ccccc1)C1CCN(c2ccc(NC(=O)[C@@H]3CCOC3)cc2F)CC1` (stereo partly drawn) [Example 132, (R)-Tetrahydro-furan-3-carboxylic acid {4-[4-(diethylcarbamoyl-phenyl-methyl)-piperidin-1-yl]-3-fluoro-phenyl}-amide] the figure was 0.055 µM; with `CCNC(=O)C(c1ccccc1)C1CCN(c2ccc(NC(=O)[C@H]3CCOC3)cc2C#N)CC1` (stereo partly drawn) [Example 133, (S)-Tetrahydro-furan-3-carboxylic acid {3-cyano-4-[4-(ethylcarbamoyl-phenyl-methyl)-piperidin-1-yl]-phenyl}-amide], 0.06 µM.
For `CCN(CC)C(=O)C(c1ccccc1)C1CCN(c2ccc(NC(=O)Cc3cscc3C)cc2F)CC1` (centres unmarked) [Example 134, N,N-Diethyl-2-(1-{2-fluoro-4-[2-(4-methyl-thiophen-3-yl)-acetylamino]-phenyl}-piperidin-4-yl)-2-phenyl-acetamide], the IC50 worked out at 0.08 µM.
As for `CCN(CC)C(=O)C(c1ccccc1)N1CCN(c2ccc(NC(=O)C3CCC3)cc2F)CC1` (centres unmarked) [Example 135, Cyclobutanecarboxylic acid {4-[4-(diethylcarbamoyl-phenyl-methyl)-piperazin-1-yl]-3-fluoro-phenyl}-amide], the IC50 was 0.06 µM.

The record behind these values is US8183239B2, “Substituted piperazines and piperidines as modulators of the neuropeptide Y2 receptor” (Janssen Pharmaceutica NV, priority 2005, dated 2012).
